Data: patent US20070254843A1, “Methods for treating bone associated diseases by the use of methionine aminopeptidase-2 inhibitors” (Praecis Pharmaceuticals Incorporated, priority 2006, published 2007)

Tests used:
MetAP-2 = biological target: T1, MetAP-2 (Rattus norvegicus, UniProt P38062); assay: MetAP-2 pharmacodynamic assay in wbc lysates; assay type: in vivo; details: po, PG-PS arthritis rats, 1 mg/kg p.o. qod, read-out: MetAP-2 in wbc inhibited relative to vehicle-treated group
T1 construct: wbc from animals of each study group were pooled and cell lysates were prepared as previously described; from tissue; host or cells: white blood cells (wbc) of female Lewis rats, pooled per study group and lysed
Method: MetAP-2 pharmacodynamic assay. The MetAP-2 assay measures the amount of uninhibited MetAP-2 in cells or tissues which has not been derivitized by prior treatment with the MetAP-2 inhibitor (Bernier (2004) Proc. Natl. Acad. Sci. USA 101: 10768-10773 and Bernier (2005) J. Cell. Biochem. 95: 1191-1203). Briefly, wbc from animals of each study group were pooled and cell lysates were prepared as previously described (Bernier (2004) Proc. Natl. Acad. Sci. USA 101: 10768-10773 and Bernier (2005) J. Cell. Biochem. 95: 1191-1203). 10 μg to 20 μg of wbc protein was incubated with a biotinylated analog of the MetAP-2 inhibitor which covalently binds to the catalytic site of MetAP-2. The biotinylated MetAP-2-inhibitor complex was captured on a plate with immobilized streptavidin (Pierce), and detected with the MetAP-2 antibody CM33 (0.5 μg/ml), followed by horseradish peroxidase-conjugated goat anti-rabbit IgG secondary antibody. The amount of uninhibited MetAP-2 was determined by measuring the absorption at 450 nm using a Labsystems Multiskan plate spectrophotometer. Human recombinant MetAP-2 (Mediomics), pre-bound to the biotinylated MetAP-2 inhibitor, was used to generate the standard curve. The detection limit of this assay was 0.47 ng MetAP-2 protein/mg wbc protein.
Since the MetAP-2 inhibitor had the ability to inhibit multiple cell types critical for pathogenesis of the bone associated disease, RA, in vitro, it was hypothesized that the observations from the in vitro studies (Example 1) would translate into protection from disease in animals in the PG-PS model of arthritis. The progression of disease in this model follows a biphasic mode, with an early acute, predominantly neutrophil-driven phase which persists to days 6-7, followed by a chronic, T cell dependent phase (evident around day 12), which is characterized by chronic inflammation and erosive synovitis (Palombella (1998) Proc. Natl. Acad. Sci. USA 95:15671-15676). Therapeutic dosing of animals administered the MetAP-2 inhibitor orally (p.o.) at 1, 5 and 10 mg/kg, every other day (qod), or vehicle started at day 15 after the chronic destructive phase of the disease was established and terminated on day 31. […] The amount of uninhibited MetAP-2 in wbc of animals from all treatment groups was measured after conclusion of the study, using the MetAP-2 pharmacodynamic assay (Bernier (2004) Proc. Natl. Acad. Sci. USA 101: 10768-10773 and Bernier (2005) J. Cell. Biochem. 95: 1191-1203). […]

PG-PS-induced arthritis [1] = assay: Microfocal computed tomography of hind joints in rat PG-PS arthritis model; assay type: in vivo; details: PG-PS arthritis, 1 mg/kg; threshold 255
Method: Microfocal computed tomography. All specimens were scanned on a Scanco Medical AG μCT 40 system. Images were obtained with an isotropic voxel resolution of 20 microns. A matrix size of 1024×1024 with 1000 projections was utilized for all scans. A total of 1836 slices were scanned for each specimen (the number of slices scanned was determined by the length of the scan needed to cover the entire ankle including the distal tibia). The scan time per specimen was approximately 2.6 hours. The images were then volume rendered using a fixed threshold (at two different thresholds: 255 and 140). The total bone volume and BMD were calculated over the same regions of all the specimens. Micro-CT was performed at Scanco USA, Incorporated.
Finally, the activity of the MetAP-2 inhibitor on the structural preservation of hind joints in rats with established disease was investigated.
The ankles including the distal tibia were scanned using a Scanco Medical AG μCT 40 system (threshold: 255), and the total bone volume and BMD were calculated over the same regions of all specimens.

PG-PS-induced arthritis [2] = assay: Clinical (histopathological) assessment of PG-PS arthritis, joint histology score; assay type: in vivo, rat; details: PG-PS arthritis, 1 mg/kg
Method: Clinical assessment of PG-PS arthritis. The histopathological evaluation was performed on the left and right hind joints of randomly selected animals from each study group by an independent histopathologist without knowledge of specific interventions. After completion of the study, the left and right hind ankles were removed, fixed in 10% buffered formalin, decalcified in 5% formic acid, paraffin-embedded, sectioned, and H&E stained for histological evaluation. A joint histology scoring system which grades the severity of 4 histopathological processes (cell infiltration, pannus formation, cartilage erosion, bone resorption), was used to quantify hind joint involvement in the PG-PS arthritis model (36). Dependent on the assigned score for each parameter (0=normal, 1=minimal, 2=mild, 3=moderate, 4=marked), the maximum total score per ankle is 16, and 32 per animal.
It was investigated whether the protective activity of the MetAP-2 inhibitor in this animal model of arthritis, which is characterized by aggressive synovitis, extensive pannus formation, cartilage degradation and focal bone erosion, was mediated through regression in the severity of all clinical indices tested, or whether this activity was targeting specific pathogenic processes.
A joint histology scoring system which grades the severity of 4 histopathological processes (cell infiltration, pannus formation, cartilage erosion, bone resorption) was used (O'Byrne (1991) Agents and Actions 134:239-241).

T1 sequence (P38062 whole entry): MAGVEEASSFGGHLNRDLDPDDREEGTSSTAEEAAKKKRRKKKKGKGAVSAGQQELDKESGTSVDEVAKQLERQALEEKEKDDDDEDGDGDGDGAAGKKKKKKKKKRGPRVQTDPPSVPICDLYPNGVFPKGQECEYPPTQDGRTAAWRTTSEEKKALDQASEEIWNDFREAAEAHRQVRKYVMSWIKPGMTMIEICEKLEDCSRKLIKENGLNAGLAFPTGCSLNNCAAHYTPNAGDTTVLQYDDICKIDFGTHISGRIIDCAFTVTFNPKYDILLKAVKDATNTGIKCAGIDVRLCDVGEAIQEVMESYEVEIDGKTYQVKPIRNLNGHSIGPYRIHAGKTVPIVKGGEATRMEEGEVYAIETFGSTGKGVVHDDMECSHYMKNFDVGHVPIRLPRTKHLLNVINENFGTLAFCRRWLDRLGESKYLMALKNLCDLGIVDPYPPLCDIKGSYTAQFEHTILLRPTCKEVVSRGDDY

- inhibition at 1 mg/kg (MetAP-2): ≥ 90%
Compound: C[C@@H]1C[C@H]2[C@@H]3CCC4=CC(=O)C=C[C@]4(C)[C@@]3(F)[C@@H](O)C[C@]2(C)[C@@]1(O)C(=O)CO [dex, dexamethasone, reference compound]
- BMD (PG-PS-induced arthritis [1]): 1125 ± 2.59 mg HA/ccm
- Bone Volume (Vox-BV) (PG-PS-induced arthritis [1]): 240.7 ± 12.68
- Total arthritis score (PG-PS-induced arthritis [2]): 2.35 ± 0.23^B
- Bone Resorption score (PG-PS-induced arthritis [2]; score 0-4): 0.95 ± 0.13^B
- Cartilage erosion score (PG-PS-induced arthritis [2]; score 0-4): 0.60 ± 0.14^B
- Cell infiltration score (PG-PS-induced arthritis [2]; score 0-4): 0.25 ± 0.08^A
- Pannus formation score (PG-PS-induced arthritis [2]; score 0-4): 0.55 ± 0.08^A
